Results: ChEMBL document CHEMBL3232727, “Evaluation of bisindole as potent β-glucuronidase inhibitors: synthesis and in silico based studies” (Bioorg Med Chem Lett, 2014)
pIC50: −log10 of the molar value.

What follows are molecules tested against T1, Beta-glucuronidase (Bos taurus) (UniProt A3KMY8) (assay: (§1) Inhibition of bovine liver beta-glucuronidase using p-nitrophenyl-beta-D-glucuronide as substrate after 30 mins by spectrophotometry).
T1 sequence (whole entry): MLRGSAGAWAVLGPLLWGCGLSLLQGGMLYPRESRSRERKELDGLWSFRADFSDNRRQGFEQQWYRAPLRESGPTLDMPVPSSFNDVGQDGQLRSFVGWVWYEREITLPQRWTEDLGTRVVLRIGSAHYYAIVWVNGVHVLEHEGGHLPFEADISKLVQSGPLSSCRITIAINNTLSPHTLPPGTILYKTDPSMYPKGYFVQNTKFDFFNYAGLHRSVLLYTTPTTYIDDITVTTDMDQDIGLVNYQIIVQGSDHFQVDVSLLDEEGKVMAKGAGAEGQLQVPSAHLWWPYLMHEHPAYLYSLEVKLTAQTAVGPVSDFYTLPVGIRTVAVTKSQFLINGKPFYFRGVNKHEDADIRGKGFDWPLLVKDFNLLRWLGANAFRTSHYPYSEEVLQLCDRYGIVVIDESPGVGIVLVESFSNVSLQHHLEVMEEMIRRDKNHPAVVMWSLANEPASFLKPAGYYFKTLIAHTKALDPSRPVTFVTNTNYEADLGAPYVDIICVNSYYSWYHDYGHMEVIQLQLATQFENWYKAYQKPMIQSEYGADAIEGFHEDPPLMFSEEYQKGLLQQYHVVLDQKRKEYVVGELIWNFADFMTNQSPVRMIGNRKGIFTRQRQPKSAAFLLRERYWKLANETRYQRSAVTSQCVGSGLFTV
Design: concentration or dose not given beside the values

Row | inhibition [%] | SMILES
1 | < 50 | O=[N+]([O-])c1ccc(C(c2c[nH]c3ccc(Br)cc23)c2c[nH]c3ccc(Br)cc23)cc1
2 | < 50 | CSc1ccc(C(c2c[nH]c3ccc(Br)cc23)c2c[nH]c3ccc(Br)cc23)cc1

The next lines start with the molecule.

Row | SMILES | inhibition [%]
3 | COc1cc(C(c2c[nH]c3ccc(Br)cc23)c2c[nH]c3ccc(Br)cc23)ccc1O | < 50
4 | O=[N+]([O-])c1ccccc1C(c1c[nH]c2ccc(Br)cc12)c1c[nH]c2ccc(Br)cc12 | < 50
5 | CSc1ccc(C(c2c[nH]c3ccc(C#N)cc23)c2c[nH]c3ccc(C#N)cc23)cc1 | < 50
6 | N#Cc1ccc2[nH]cc(C(c3ccc(Cl)c(Cl)c3)c3c[nH]c4ccc(C#N)cc34)c2c1 | < 50
7 | COc1ccccc1C(c1c[nH]c2ccc(Br)cc12)c1c[nH]c2ccc(Br)cc12 | < 50

What follows are molecules tested against T2, Beta-glucuronidase (Bos taurus, UniProt A3KMY8) (assay: as §1).
T2 sequence (A3KMY8 whole entry): T1 sequence (whole entry)

Row | pIC50 | SMILES
8 | 4.67 | Clc1ccc(C(c2c[nH]c3ccc(Br)cc23)c2c[nH]c3ccc(Br)cc23)cc1Cl
9 | 4.65 | Clc1cccc(C(c2c[nH]c3ccc(Br)cc23)c2c[nH]c3ccc(Br)cc23)c1

The next lines start with the molecule.

Row | SMILES | pIC50
10 | Cc1ccccc1C(c1c[nH]c2ccc(Br)cc12)c1c[nH]c2ccc(Br)cc12 | 4.68
11 | Fc1ccccc1C(c1c[nH]c2ccc(Br)cc12)c1c[nH]c2ccc(Br)cc12 | 4.74
12 | Oc1ccc(C(c2c[nH]c3ccc(Br)cc23)c2c[nH]c3ccc(Br)cc23)c(O)c1 | 5.79
13 | N#Cc1ccc2[nH]cc(C(c3ccccc3[N+](=O)[O-])c3c[nH]c4ccc(C#N)cc34)c2c1 | 4.70
